The source of these data is US20180088120A1, “Elevated PSMA Identifies Lethal Prostate Cancers” (Cornell University, priority 2012, published 2018).

The test system of the assay is prostate cancer lesions. As to the kind of experiment: FDG PET imaging of prostate cancer patients (comparison). It is filed as in vivo, human. From the text:
These panels show CT scans (left column) and PET scans (right column). […] However, this is not observed in the Fludeoxyglucose (^18F) PET (lower right panel).
FIGS. 7-9 show CT and PET/CT scan taken from the same patient as from FIG. 6.

For `OC[C@H]1OC(O)[C@H]([18F])[C@@H](O)[C@@H]1O` (some centres unmarked) [Fludeoxyglucose (^18F)], the “PET uptake in bone metastasis, left iliac bone” value (patient with metastatic prostate cancer, FIG. 5) was “not observed”. Besides, the “Uptake in skeletal lesions not clearly seen on bone scan” value (patient with prostate carcinoma, FIG. 6) is reported as “non-FDG avid”.
